Experimental data from PubChem BioAssay (NCI).
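Values below derive from 48-hour exposures of cells grown in 96-well plates, with endpoints linearly interpolated between the two concentrations bracketing the appropriate inhibition level. At the TGI there is no net growth.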

What was measured:
Experiment in all cases: NCI tumour cell line growth inhibition, 48 h
[1] = test system: XF 498 CNS
[2] = test system: SF-295 CNS
[3] = test system: EKVX NSCLC
[4] = test system: SK-MEL-5 melanoma
[5] = test system: SW-620 colon
[6] = test system: SNB-75 CNS
[7] = test system: COLO 205 colon
[8] = test system: HCT-15 colon
[9] = test system: TK-10 renal
[10] = test system: UACC-62 melanoma
[11] = test system: M19-MEL melanoma
[12] = test system: UO-31 renal
[13] = test system: CCRF-CEM leukemia
[14] = test system: SK-OV-3 ovarian
[15] = test system: NCI-H460 lung
[16] = test system: RXF 393 renal
[17] = test system: UACC-257 melanoma
[18] = test system: IGROV1 ovarian
[19] = test system: OVCAR-8 ovarian
[20] = test system: SF-268 CNS
[21] = test system: SNB-19 CNS
[22] = test system: 786-0 renal
[23] = test system: SN12C renal
[24] = test system: K-562 leukemia
[25] = test system: OVCAR-4 ovarian
[26] = test system: HCT-116 colon
[27] = test system: A549 NSCLC
[28] = test system: SK-MEL-28 melanoma
[29] = test system: MALME-3M melanoma
[30] = test system: SNB-78 CNS
[31] = test system: KM12 colon
[32] = test system: A498 renal
[33] = test system: HL-60(TB) leukemia
[34] = test system: NCI-H23 lung
[35] = test system: SR leukemia
[36] = test system: ACHN renal
[37] = test system: DLD-1 colon
[38] = test system: HCC-2998 colon
[39] = test system: M14 melanoma
[40] = test system: RPMI-8226 leukemia
[41] = test system: OVCAR-3 ovarian
[42] = test system: OVCAR-5 ovarian
[43] = test system: SK-MEL-2 melanoma
[44] = test system: MOLT-4 leukemia
[45] = test system: HOP-92 NSCLC
[46] = test system: RXF-631 renal
[47] = test system: KM20L2 colon
[48] = test system: HOP-18 NSCLC
[49] = test system: LXFL 529 NSCLC
[50] = test system: SF-539 CNS
[51] = test system: HOP-62 NSCLC
[52] = test system: U251 CNS
[53] = test system: LOX IMVI melanoma
[54] = test system: DMS 114 small cell lung
[55] = test system: DMS 273 small cell lung
[56] = test system: CAKI-1 renal
[57] = test system: HT29 colon
[58] = test system: NCI-H522 lung
[59] = test system: NCI-H226 lung

Measured: TGI

CC1(C)CC2CC(CC(C)(C)C2=O)C1=O
not listed: [58] | [59]
> 100 µM: all other assays above

CCc1ccccc1NC(=O)/C(N=O)=C(/C)O
not listed: [35] | [42] | [45]
> 100 µM: all other assays above
